From patent US12384770B2, “Heterocyclic compound” (Takeda Pharmaceutical Company Limited, priority 2019, dated 2025)

Molecular target: T1, HDAC6 enzyme (Homo sapiens, UniProt Q9UBN7)
T1 construct: HDAC6 enzyme prepared by transducing full length HDAC6 gene into Sf-9 insect cells; GST; purchased SignalChem; host or cells: Sf-9 insect cells
T1 sequence (Q9UBN7 1-1215): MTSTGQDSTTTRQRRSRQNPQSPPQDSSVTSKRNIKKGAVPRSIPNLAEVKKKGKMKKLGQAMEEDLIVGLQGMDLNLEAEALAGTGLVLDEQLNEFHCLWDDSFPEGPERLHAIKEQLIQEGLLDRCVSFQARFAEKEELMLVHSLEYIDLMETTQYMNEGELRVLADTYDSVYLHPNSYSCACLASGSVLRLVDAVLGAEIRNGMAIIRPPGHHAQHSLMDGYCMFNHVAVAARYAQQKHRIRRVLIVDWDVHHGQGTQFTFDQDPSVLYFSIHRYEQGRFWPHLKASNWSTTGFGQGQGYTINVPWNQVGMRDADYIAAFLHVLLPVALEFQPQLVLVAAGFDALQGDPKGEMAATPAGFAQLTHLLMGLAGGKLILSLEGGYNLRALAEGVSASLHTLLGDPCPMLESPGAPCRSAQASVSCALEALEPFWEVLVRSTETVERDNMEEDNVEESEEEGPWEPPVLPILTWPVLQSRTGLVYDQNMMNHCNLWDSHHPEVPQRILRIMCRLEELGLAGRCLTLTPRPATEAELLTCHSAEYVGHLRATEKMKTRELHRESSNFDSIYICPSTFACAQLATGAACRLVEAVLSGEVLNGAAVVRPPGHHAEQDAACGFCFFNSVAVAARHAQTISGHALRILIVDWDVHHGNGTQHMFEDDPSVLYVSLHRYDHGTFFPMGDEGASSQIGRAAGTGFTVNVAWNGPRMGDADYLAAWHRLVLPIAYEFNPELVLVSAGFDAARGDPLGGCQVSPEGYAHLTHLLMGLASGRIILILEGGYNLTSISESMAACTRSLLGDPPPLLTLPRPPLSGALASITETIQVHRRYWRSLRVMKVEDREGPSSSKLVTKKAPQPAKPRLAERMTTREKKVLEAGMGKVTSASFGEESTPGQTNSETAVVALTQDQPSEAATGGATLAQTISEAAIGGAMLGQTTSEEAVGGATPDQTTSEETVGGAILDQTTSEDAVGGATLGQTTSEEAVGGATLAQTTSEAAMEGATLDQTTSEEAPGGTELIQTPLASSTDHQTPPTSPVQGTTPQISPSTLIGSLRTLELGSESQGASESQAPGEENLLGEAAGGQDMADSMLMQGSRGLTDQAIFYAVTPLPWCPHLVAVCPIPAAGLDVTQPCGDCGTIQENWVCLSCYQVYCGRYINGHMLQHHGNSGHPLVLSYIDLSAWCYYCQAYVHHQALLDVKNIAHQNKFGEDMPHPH
Assay: HDAC6 enzyme inhibitory assay (HDAC-Glo I/II Assay kit)
Assay type: biochemical
Conditions: wells without enzyme = 100% inhibition
Outline: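 Full-length GST-purified HDAC6 from Sf-9 cells preincubated with compound 60 min at room temperature in Tris-HCl pH 7.5 buffer with MgCl2, KCl, NaCl, glutathione, Tween-20. Substrate-developer reaction 20 min, luminescence read; no-enzyme wells set as 100% inhibition.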

HDAC6 inhibitory rate (%) (10 μM)	Compound
100	O=C1c2cc(-c3nnc(C(F)F)o3)ccc2CN1[C@H](c1cnccn1)[C@@H](O)c1ccc(F)cc1 (single isomer, unassigned) [Example 99, 6-[5-(difluoromethyl)-1,3,4-oxadiazol-2-yl]-2-[(1R*,2S*)-2-(4-fluorophenyl)-2-hydroxy-1-(pyrazin-2-yl)ethyl]-2,3-dihydro-1H-isoindol-1-one]

Same assay, conditions: wells without enzyme = 100% inhibition, 10 µM

Compound	HDAC6 inhibitory rate (%) (10 μM)
O=C1c2cc(-c3nnc(C(F)F)o3)ccc2CN1[C@H](c1ncccn1)[C@@H](O)c1ccc(F)c(F)c1 (single isomer, unassigned) [Example 95, 6-[5-(difluoromethyl)-1,3,4-oxadiazol-2-yl]-2-[(1R*,2S*)-2-(3,4-difluorophenyl)-2-hydroxy-1-(pyrimidin-2-yl)ethyl]-2,3-dihydro-1H-isoindol-1-one]	99
O=C1c2cc(-c3nnc(C(F)F)o3)ccc2CN1[C@H](c1ccc(F)cn1)[C@@H](O)c1cccc(F)n1 (single isomer, unassigned) [Example 67, 6-[5-(difluoromethyl)-1,3,4-oxadiazol-2-yl]-2-[(1R*,2R*)-1-(5-fluoropyridin-2-yl)-2-(6-fluoropyridin-2-yl)-2-hydroxyethyl]-2,3-dihydro-1H-isoindol-1-one]	99
O=C1c2cc(-c3nnc(C(F)F)o3)ccc2CN1[C@H](C1CC1)[C@@H](O)c1cccc(Cl)n1 (single isomer, unassigned) [Example 130, 2-[(1R*,2R*)-2-(6-chloropyridin-2-yl)-1-cyclopropyl-2-hydroxyethyl]-6-[5-(difluoromethyl)-1,3,4-oxadiazol-2-yl]-2,3-dihydro-1H-isoindol-1-one]	98

Now from value to compound:

HDAC6 inhibitory rate (%) (10 μM)	Compound
99	O=C1c2cc(-c3nnc(C(F)F)o3)ccc2CN1[C@H](c1cnccn1)[C@@H](O)c1ccc(Cl)cc1 (single isomer, unassigned) [Example 97, 2-[(1R*,2S*)-2-(4-chlorophenyl)-2-hydroxy-1-(pyrazin-2-yl)ethyl]-6-[5-(difluoromethyl)-1,3,4-oxadiazol-2-yl]-2,3-dihydro-1H-isoindol-1-one]
100	O=C1c2cc(-c3nnc(C(F)F)o3)ccc2CN1[C@H](c1cccc(F)n1)[C@@H](O)c1ccccn1 (single isomer, unassigned) [Example 76, 6-[5-(difluoromethyl)-1,3,4-oxadiazol-2-yl]-2-[(1R*,2R*)-1-(6-fluoropyridin-2-yl)-2-hydroxy-2-(pyridin-2-yl)ethyl]-2,3-dihydro-1H-isoindol-1-one]

Same assay, conditions: wells without enzyme = 100% inhibition, read-out: HDAC6 inhibitory rate (%) (10 μM)

Compound	inhibition at 10 µM [%]
O=C1c2cc(-c3nnc(C(F)F)o3)ccc2CN1[C@H](c1ccc(F)cc1)[C@@H](O)c1ccc(C(F)(F)F)nc1 (single isomer, unassigned) [Example 54, 6-[5-(difluoromethyl)-1,3,4-oxadiazol-2-yl]-2-{(1R*,2S*)-1-(4-fluorophenyl)-2-hydroxy-2-[6-(trifluoromethyl)pyridin-3-yl]ethyl}-2,3-dihydro-1H-isoindol-1-one]	100
O=C1c2cc(-c3nnc(C(F)F)o3)ccc2CN1[C@H](c1cccnn1)[C@@H](O)c1ccc(F)c(F)c1 (single isomer, unassigned) [Example 108, 6-[5-(difluoromethyl)-1,3,4-oxadiazol-2-yl]-2-[(1R*,2S*)-2-(3,4-difluorophenyl)-2-hydroxy-1-(pyridazin-3-yl)ethyl]-2,3-dihydro-1H-isoindol-1-one]	100
O=C1c2cc(-c3nnc(C(F)F)o3)ccc2CN1[C@H](c1ccc(F)cc1)[C@H](O)c1ccc(C(F)(F)F)nc1 (racemic) [Example 142, 6-[5-(difluoromethyl)-1,3,4-oxadiazol-2-yl]-2-{(1RS,2RS)-1-(4-fluorophenyl)-2-hydroxy-2-[6-(trifluoromethyl)pyridin-3-yl]ethyl}-2,3-dihydro-1H-isoindol-1-one]	100
O=C1c2cc(-c3nnc(C(F)F)o3)ccc2CN1[C@H](C1CC1)[C@@H](O)c1ccc(C(F)(F)F)nc1 (single isomer, unassigned) [Example 77, 2-{(1R*,2S*)-1-cyclopropyl-2-hydroxy-2-[6-(trifluoromethyl)pyridin-3-yl]ethyl}-6-[5-(difluoromethyl)-1,3,4-oxadiazol-2-yl]-2,3-dihydro-1H-isoindol-1-one]	100
O=C1c2cc(-c3nnc(C(F)F)o3)ccc2CN1[C@H](C1CC1)[C@H](O)c1ccc(F)cc1 [Example 137, 2-[(1R,2R)-1-cyclopropyl-2-(4-fluorophenyl)-2-hydroxyethyl]-6-[5-(difluoromethyl)-1,3,4-oxadiazol-2-yl]-2,3-dihydro-1H-isoindol-1-one]	100
O=C1c2cc(-c3nnc(C(F)F)o3)ccc2CN1[C@H](c1cccc(F)n1)[C@@H](O)c1cccc(F)n1 (single isomer, unassigned) [Example 117, 2-[(1R*,2R*)-1,2-bis(6-fluoropyridin-2-yl)-2-hydroxyethyl]-6-[5-(difluoromethyl)-1,3,4-oxadiazol-2-yl]-2,3-dihydro-1H-isoindol-1-one]	101

Results, then the compound that gave them:

inhibition at 10 µM [%]	Compound
100	O=C1c2cc(-c3nnc(C(F)F)o3)ccc2CN1[C@@H](c1ccccn1)[C@H](O)c1ccccn1 [Example 2, 6-[5-(difluoromethyl)-1,3,4-oxadiazol-2-yl]-2-[(1S,2S)-2-hydroxy-1,2-di(pyridin-2-yl)ethyl]-2,3-dihydro-1H-isoindol-1-one]
101	O=C1c2cc(-c3nnc(C(F)F)o3)ccc2CN1[C@H](c1ccccc1F)[C@@H](O)c1ccccc1 (racemic) [Example 27, 6-[5-(difluoromethyl)-1,3,4-oxadiazol-2-yl]-2-[(1RS,2SR)-1-(2-fluorophenyl)-2-hydroxy-2-phenylethyl]-2,3-dihydro-1H-isoindol-1-one]
100	O=C1c2cc(-c3nnc(C(F)F)o3)ccc2CN1[C@@H](c1ccccc1)[C@H](O)c1ccccc1 [Example 14, 6-[5-(difluoromethyl)-1,3,4-oxadiazol-2-yl]-2-[(1S,2R)-2-hydroxy-1,2-diphenylethyl]-2,3-dihydro-1H-isoindol-1-one]
99	O=C1c2cc(-c3nnc(C(F)F)o3)ccc2CN1[C@@H](c1ccccc1)[C@@H](O)c1ccccc1 [Example 13, 6-[5-(difluoromethyl)-1,3,4-oxadiazol-2-yl]-2-[(1S,2S)-2-hydroxy-1,2-diphenylethyl]-2,3-dihydro-1H-isoindol-1-one]
99	O=C1c2cc(-c3nnc(C(F)F)o3)ccc2CN1[C@H](c1ccccc1)[C@@H](O)c1ccccc1 [Example 11, 6-[5-(difluoromethyl)-1,3,4-oxadiazol-2-yl]-2-[(1R,2S)-2-hydroxy-1,2-diphenylethyl]-2,3-dihydro-1H-isoindol-1-one]
100	N#Cc1cccc([C@H]([C@@H](O)c2ccccc2)N2Cc3ccc(-c4nnc(C(F)F)o4)cc3C2=O)c1 (racemic) [Example 40, 3-[(1RS,2SR)-1-{6-[5-(difluoromethyl)-1,3,4-oxadiazol-2-yl]-1-oxo-1,3-dihydro-2H-isoindol-2-yl}-2-hydroxy-2-phenylethyl]benzonitrile]
